Experimental findings from patent US20120283175A1, “ANTIBACTERIAL COMPOSITIONS” (Achaogen, Inc., priority 2009, published 2012) are described below.

In one data set the test system is gram negative bacteria. The experiment in a line: Checkerboard synergy score at fractions of the antibacterial agent's MIC, with LpxCi-1, -2, -3. The format is cell-based. Further details: scale not given here. The method, then: Partial or full inhibition of LpxC should compromise the outer membrane and thus allow these synergizing agents to enter the cells and exert an antibacterial effect at concentrations where cells untreated with an LpxC inhibitor are unaffected. As a first step, checkerboard synergy assays for a variety of antibacterial agents were perform with several LpxC inhibitors, on several species of gram negative bacteria.
(§1) Bacterial isolates were cultivated from −70° C. frozen stocks of the indicated strains by overnight passages at 35° C. in ambient air on Mueller-Hinton agar (Beckton Dickinson, Franklin Lakes, N.J.). Minimum Inhibitory Concentrations (MICs) were determined by the broth microdilution method in accordance with the Clinical and Laboratory Standards Institute (CLSI) guidelines. In brief, organism suspensions were adjusted to a 0.5 McFarland standard to yield a final inoculum between 3×10^5 and 7×10^5 colony-forming units (CFU)/mL. Drug dilutions and inocula were made in sterile, cation adjusted Mueller-Hinton Broth (Beckton Dickinson). An inoculum volume of 100 μL was added to wells containing 100 μL of broth with 2-fold serial dilutions of drug. All inoculated microdilution trays were incubated in ambient air at 35° C. for 18-24 hours. Following incubation, the lowest concentration of the drug that prevented visible growth (OD600 nm <0.05) was recorded as the MIC.

The next data set relates to K. pneumo. (ATCC43816). The experiment in a line: Neutropenic thigh in vivo efficacy model (mice). Further details: species or system Klebsiella pneumoniae; Static Dose, LpxC cmpd / Static Dose, LpxC in combination: unit not given here. The conditions noted are these: for Static Dose, LpxC cmpd: LpxC compound alone; for Static Dose, LpxC in combination: combination agent Vanco (440 mg/kg/day). The source says:
(§2) The model was run essentially as described by Craig and others (see Gudmundsson et al., “Murine Thigh Infection Model,” Handbook of Animal Models of Infection, M. A. Sande and O. Zak, Eds.; London: Academic Press, 1999, pp 137-144). Briefly, mice were rendered neutropenic prior to infection with 2 doses of cyclophosphamide, and then infected intramuscularly in the thigh with inocula of 10^3-10^5 CFU of either K. pneumo. (ATCC43816) or P. aeruginosa (ATCC27853). Antibiotics or vehicle alone as a negative control were administered twice at 2 hrs and 14 hrs post-infection. The animals were kept neutropenic for the duration of the experiment in order to minimize the effect of white blood cells on the infection such that the microbiological readout measures the in vivo interaction of drugs and bacteria. At 24 hrs post-infection, thighs were harvested, homogenized, and plated to measure the number of CFUs surviving per thigh. Thighs from a subset of animals were also harvested 2 hrs post-infection to record the CFUs present just prior to the first antibiotic treatment (pre-treatment).

Data set [1] concerns Klebsiella pneumoniae (ATCC 43816). The format is in vivo. To be noted: for Mean CFU/g thigh muscle (SEM): normal plates; for Mean CFU/g thigh muscle (SEM) / CFU/Drug Plate - Dilution 10^0 / CFU/Drug Plate - Dilution 10^−1: Vancomycin 25 mg/kg, LpxC-i 35 mg/kg; for CFU/Drug Plate - Dilution 10^0 / CFU/Drug Plate - Dilution 10^−1: per animal N 1-5. On the procedure:
Vancomycin and LpxCi-5 were dissolved in 30% HPβCD (2-hydroxypropyl-β-cyclodextrin). Test substances were each administered subcutaneously (SC) singly or in combination to test animals at 2 hours and 14 hours after bacterial inoculation then bid daily for a total of 1, 2, 3 or 7 day(s). The dosing volume was 5 mL/kg.
Groups of 5 or 10 male specific-pathogen-free CD-1 (Crl.) mice weighing 24±2 g were used. Animals were immunosuppressed by two or three intraperitoneal injections of cyclophosphamide, the first at 150 mg/kg 4 days before infection (day −4) and the second or third at 100 mg/kg 1 day before or 3 days after infection (day −1 or +3). On day 0, animals were inoculated intramuscularly (0.1 mL/thigh) into the right thigh with a specific number (1.35×10^7 CFU/mouse) of Klebsiella pneumoniae (ATCC 43816). Vehicle and test substances (singly or in combination) were each administered subcutaneously 2 hours and 14 hours after inoculation then bid for a total of 1, 2, 3 or 7 consecutive day(s). Groups at 24, 48, 72 hours and day 8 hours after treatment as the designated time of harvest, muscle of the right thigh was harvested from each of the survival test animals. An additional group with no treatment, at 2 hours after inoculation, the muscle of the right thigh was harvested and viable CFU on agar plates with or without drug were quantified by standard methods. Animals in groups designated for Day 8 harvest are 10 mice and daily tally of survivors were kept until harvest and recorded. A non-infected group was just treated with LpxCi-5 and kept out to Day 8 and then harvested. The removed muscle tissues were then homogenized in 3˜4 mL of PBS, pH 7.4, with a ceramic mortar. Homogenates of 0.1 mL were used for serial 10-fold dilutions and plated on Muller-Hinton Broth in 1.5% Bacto agar and plated in parallel with drug plates for CFU determination. The original inoculum was adjusted to 2×10^8 CFU/0.1 mL and then plated onto the 3 different drug plates of LpxCi-5 for CFU count.
The immunity of animals treated with vehicle or vancomycin alone was suppressed by two intraperitoneal injections of cyclophosphamide, the first was at 150 mg/kg 4 days before infection (day −4) and the second was at 100 mg/kg 1 day before infection (day −1). On day 0, test compound and vehicle were each administered subcutaneously at 2 and 14 hrs after animals were inoculated intramuscularly (0.1 mL/thigh) with 1.35×10^7 CFU/mouse of Klebsiella pneumoniae (ATCC 43816).
(§3) The immunity of animals treated with LpxCi-5 alone was suppressed by two or three intraperitoneal injections of cyclophosphamide, the first was at 150 mg/kg 4 days before infection (day −4); the second and the third was at 100 mg/kg 1 day before and three days after infection (day −1 and day +3). On day 0, test compound were each administered subcutaneously bid at 2 and 14 hrs after animals were inoculated intramuscularly (0.1 mL/thigh) with 1.35×10^7 CFU/mouse of Klebsiella pneumoniae (ATCC 43816) for one, two, three or seven consecutive days. At 24, 48, 72 hours or at day 8 after treatment, muscle of the right thigh was harvested from each of the test animals for CFU determination in normal and drug plates.
as §3, with “both vancomycin and the LpxC inhibitor, LpxCi-5,” for “LpxCi-5 alone”, “compounds in combination” for “compound”, “days.” for “days. At 24, 48, 72 hours or at day 8 after treatment, muscle of the right thigh was harvested from each of the test animals for CFU determination in normal and drug plates.”

The test system of data set [2] is P. aeruginosa (ATCC27853).
Text: as §2
This table focuses on the sensitive part of the LpxCi-4 dose response curve (30 mg/kg) by examining the mean log CFU at 0 or 24 hours, as well as the log change in CFU at 24 hours relative to zero hours (“ΔLogCFU vs […]”). Data is given for animals treated with vehicle, LpxCi-4 at 30 mg/kg, a second agent alone at the indicated doses or the combination of LpxCi-4 at 30 mg/kg plus the second agent at the indicated dose. The standard errors for each measurement are also given (n=5 animals/group). By comparing the observed drop in CFU of the combination with the sum of the drop in CFU associated with each of the two agents given separately, one can determine whether the combination is, in fact, synergistic in vivo.

The next data set concerns envA1 (D22) E. coli. The experiment in a line: MIC by broth microdilution, isogenic envA1 mutant strain. To be noted: Strain envA1 (D21). Format: cell-based. On the procedure:
as §1

The mark [3] stands for this setting: with LpxCi-3, antibacterial agent at 1/16 MIC.
Where [4] appears, read: with LpxCi-3, antibacterial agent at 1/64 MIC.
Setting [5] is: with LpxCi-3, antibacterial agent at ¼ MIC.
The mark [6] stands for this setting: strain 27853, combination agent Vanco.

Converted amounts (≈) assume the structure as drawn. “And” between values parts separate entries of the source, which are not always exact repeats. Identical values can stand only once. Like-named read-outs stand apart in the source and are kept apart here. Bounds are passed on as bounds.

The MIC is the lowest concentration that inhibits growth of the organism.
Throughout, for CFU/Drug Plate - Dilution 10^0: key: +: Too many colonies to permit accurate counting.

Take `O=C(O)c1cn(C2CC2)c2cc(N3CCNCC3)c(F)cc2c1=O` [Ciprofloxacin]: the “Synergy Score” value worked out at 1.06 in the data set with gram negative bacteria (setting [3]), 1.02 in the data set on gram negative bacteria (setting [4]) and 1.25 in the data set with gram negative bacteria (setting [5]).
For `C[C@@H](O)[C@H]1C(=O)N2C(C(=O)O)=C(SCCN=CN)C[C@H]12` [Imipenem, imipenem], the “Synergy Score” value in the data set with gram negative bacteria (with LpxCi-1, antibacterial agent at 1/16 MIC) is 0.40; with gram negative bacteria (with LpxCi-1, antibacterial agent at 1/64 MIC), “.035”; in the data set with gram negative bacteria (with LpxCi-1, antibacterial agent at ¼ MIC) it was 0.58; in the data set with gram negative bacteria (with LpxCi-2, antibacterial agent at 1/16 MIC), 1.06; in the data set with gram negative bacteria (with LpxCi-2, antibacterial agent at 1/64 MIC) it was 1.02; in the data set on gram negative bacteria (with LpxCi-2, antibacterial agent at ¼ MIC) it was 1.25. For the same molecule, the “Synergy Score” value in the data set with gram negative bacteria (setting [3]) is 0.17; in the data set on gram negative bacteria (setting [4]) it was 0.13; in the data set on gram negative bacteria (setting [5]), 0.36.
Take `C[C@@H](O)[C@H](NC(=O)c1ccc(C#Cc2ccc(CN3CCOCC3)cc2)cc1)C(=O)NO` [LpxCi-3, N-((2S,3R)-3-hydroxy-1-(hydroxyamino)-1-oxobutan-2-yl)-4-((4-(morpholinomethyl)phenyl)ethynyl)benzamide]: the “in vivo synergy with vancomycin” value in the data set with K. pneumo. (ATCC43816) (bacterial strain ATCC43816) is reported as “in vivo synergy”. Also, in the data set with K. pneumo. (ATCC43816) (strain 43816), the “Static Dose, LpxC cmpd” value was more than 1000 and the “Static Dose, LpxC in combination” value is on record as 107.
On to `CC(C)(N)[C@H](NC(=O)c1ccc(C#C/C=C/C2CC2)cc1)C(=O)NO` [LpxCi-5, (S,E)-N-(3-amino-1-(hydroxyamino)-3-methyl-1-oxobutan-2-yl)-4-(4-cyclopropylbut-3-en-1-ynyl)benzamide], for which, in data set [1] (24 hr, SC bid × 1), the “Mean CFU/g thigh muscle (SEM)” value is on record as 3.81 × 10^7 CFU/g; the “CFU/Drug Plate - Dilution 10^0” value is given as “+”; the “CFU/Drug Plate - Dilution 10^−1” value is 780 CFU/Drug Plate and + (4×). In addition, in data set [1] (48 hr, SC bid × 2), the “Mean CFU/g thigh muscle (SEM)” value is 3.80 × 10^8 CFU/g, the “CFU/Drug Plate - Dilution 10^0” value is “+” and the “CFU/Drug Plate - Dilution 10^−1” value was “+”. In data set [1] (72 hr, SC bid × 3), the “Mean CFU/g thigh muscle (SEM)” value is reported as 1.48 × 10^9 CFU/g, the “CFU/Drug Plate - Dilution 10^0” value is listed as “+” and the “CFU/Drug Plate - Dilution 10^−1” value is recorded as “+”. Moreover, the “Mean CFU/g thigh muscle (SEM)” value in data set [1] (Day 8, SC bid × 7) is recorded as “all animals died”. In addition, the “protection of the animals” value in data set [1] (LpxCi-5 at 35 mg/kg bid (70 mg/kg/day)) is listed as “provides protection to the animals out to 72 hours”. In addition, in data set [1] (LpxCi-5 at 35 mg/kg bid alone), the “resistant CFU present at 24, 48 and 72 hours” value was > 10^3 CFU/thigh; the “total burden of CFU by 72 hours” value is listed as > 10^9 CFU/thigh. In addition, the “in vivo synergy and suppression of emergence of resistant mutants” value in data set [1] (LpxCi-5 with Vancomycin) is on record as “synergistic with Vancomycin in vivo”. Further, the “survival to Day 8” value in data set [1] (bid for seven consecutive days) is reported as “All animals were dead by Day 8”.
For the molecule `CC(C)(O)[C@H](NC(=O)c1ccc(C#CC#CC2CC2)cc1)C(=O)NO` [LpxCi-6, (S)-4-(cyclopropylbuta-1,3-diynyl)-N-(3-hydroxy-1-(hydroxyamino)-3-methyl-1-oxobutan-2-yl)benzamide], the “in vivo synergy with vancomycin” value in data set [2] (bacterial strain ATCC27853) is given as “in vivo synergy”. The “Static Dose, LpxC cmpd” value was found to be 269 in data set [2] (strain 27853, LpxC compound alone) and 240 in the data set with K. pneumo. (ATCC43816) (strain 43816). In addition, the “Fold Shift Static Dose” value in data set [2] (setting [6]) was 1.8x; with K. pneumo. (ATCC43816) (strain 43816, combination agent Vanco), 3x. The “Static Dose, LpxC in combination” value in data set [2] (setting [6]) amounted to 151; in the data set on K. pneumo. (ATCC43816) (strain 43816) it was 80.
For `Cc1onc(-c2ccccc2)c1C(=O)N[C@@H]1C(=O)N2[C@@H]1SC(C)(C)[C@@H]2C(=O)O` [Oxacillin, oxacillin], the “ΔLogCFU vs 24 hr” value in data set [2] (24 hr, second block of Table 5, mg/kg/day b.i.d.: 3936 30, Eryth. 60, Dapto. 3, Oxacil. 100) is −0.35. Moreover, the “Log CFU Mean” value in data set [2] (24 hr, second block of Table 5, mg/kg/day b.i.d.: 3936 30, Eryth. 60, Dapto. 3, Oxacil. 100, n=5) is reported as 7.29. For the same molecule, the “in vivo synergy with LpxC inhibitors” value in data set [2] (P. aeruginosa (ATCC27853), summary) is recorded as “modest but potentially useful in vivo synergy”. The molecule also yielded an MIC in the data set with envA1 (D22) E. coli of 16 µg/mL (≈ 39.9 µM).
